Here are results for two compounds from patent publication US7875587B2, “Peptide analogues of GIP for treatment of diabetes, insulin resistance and obesity” (UUTECH Limited, priority 2004, dated 2011).

Data set [1] relates to BRIN-BD11 cells. The data set is described as follows: Acute tests for insulin secretion from BRIN-BD11 cells. It counts as cell-based. As to conditions: 5.6 and 16.7 mM glucose, 10^-13 to 10^-8 M peptide. As to the method:
Culture of insulin secreting cells. BRIN-BD11 cells were cultured in sterile tissue culture flasks (Corning, Glass Works, UK) using RPMI-1640 tissue culture medium containing 10% (v/v) foetal calf serum, 1% (v/v) antibiotics (100 U/ml penicillin, 0.1 mg/ml streptomycin) and 11.1 mM glucose. The cells were maintained at 37° C. in an atmosphere of 5% CO2 and 95% air using a LEEC incubator (Laboratory Technical Engineering, Nottingham, UK).
Acute tests for insulin secretion. Before experimentation, the cells were harvested from the surface of the tissue culture flasks with the aid of trypsin/EDTA (Gibco), seeded into 24-multiwell plates (Nunc, Roskilde, Denmark) at a density of 1.5×10^5 cells per well, and allowed to attach overnight at 37° C. Acute tests for insulin release were preceded by 40 minutes pre-incubation at 37° C. in 1.0 ml Krebs Ringer bicarbonate buffer (115 mM NaCl, 4.7 mM KCl, 1.28 mM CaCl2, 1.2 mM KH2PO4, 1.2 mM MgSO4, 10 mM NaHCO3, 5 g/l bovine serum albumin, pH 7.4) supplemented with 1.1 mM glucose. Test incubations were performed (n=12) at two glucose concentrations (5.6 mM and 16.7 mM) with a range of concentrations (10^−13 to 10^−8 M) of GIP or GIP analogues. After 20 minutes incubation, the buffer was removed from each well and aliquots (200 μl) were used for measurement of insulin by radioimmunoassay.

In data set [2] the test system is Wistar rats. As to the kind of experiment: In vivo plasma glucose and insulin after i.p. glucose with peptide in Wistar rats. Further details: species or system rat. Conditions: 10 nmol/kg i.p. with glucose. As for the experimental part: In vivo biological activity of GIP and Tyr^1-glucitol GIP. Effects of GIP and Tyr^1-glucitol GIP on plasma glucose and insulin concentrations were examined using 10-12 week old male Wistar rats. The animals were housed individually in an air conditioned room and 22±2° C. with a 12 hour light/12 hour dark cycle. Drinking water and a standard rodent maintenance diet (Trouw Nutrition, Belfast, Northern Ireland) were supplied ad libitum. Food was withdrawn for an 18 hour period prior to intraperitoneal injection of glucose alone (18 mmol/kq body weight) or in combination with either GIP or Tyr^1-glucitol GIP (10 nmol/kg). Test solutions were administered in a final volume of 8 ml/kg body weight. Blood samples were collected at 0, 15, 30 and 60 minutes from the cut tip of the tail of conscious rats into chilled fluoride/heparin microcentrifuge tubes (Sarstedt, Numbrecht, Germany). Samples were centrifuged using a Beckman microcentrifuge for about 30 seconds at 13,000 g. Plasma samples were aliquoted and stored at −20° C. prior to glucose and insulin determinations. All animal studies were done in accordance with the Animals (Scientific Procedures) Act 1986.
Analyses. Plasma glucose was assayed by an automated glucose oxidase procedure using a Beckman Glucose Analyzer II [33]. Plasma insulin was determined by dextran charcoal radioimmunoassay as described previously. Incremental areas under plasma glucose and insulin area under the curve (AUC) were calculated using a computer program (CAREA) employing the trapezoidal rule with baseline subtraction. Results are expressed as mean±SEM and values were compared using the Student's unpaired t-test.

Data set [3] in a line: Degradation of GIP and analogues by human plasma (HPLC). Format: in vitro ADME. The gist of the method:
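Pooled plasma from six fasted humans was incubated with GIP or Tyr^1-glucitol GIP (10 μg) at 37 °C for 0 and 4 h in 50 mmol/l triethanolamine/HCl, pH 7.8; 4 h runs were also done with diprotin A […]. TFA-stopped samples were Sep-Pak cleaned, then run on reversed-phase HPLC (206 nm peak areas) with ESI-MS.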

For data set [4], the target named is T1, DPP IV (Sus scrofa, UniProt P22411).
T1 construct: purchased Sigma (Poole, Dorset, UK)
The data set is described as follows: Degradation of GIP and analogues by DPP IV (HPLC). It counts as in vitro ADME. The gist of the method:
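GIP or Tyr1-glucitol GIP (1 mmol/l) incubated at 37 °C with DPP IV (5 mU) in 50 mmol/l triethanolamine-HCl pH 7.8; stopped with TFA at 0, 2, 4 and 12 h. Products separated by reverse-phase HPLC (acetonitrile/TFA gradient, 206 nm), peak areas integrated, identity by ESI-MS.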

[5] abbreviates: human, plasma, pH 7.8, % Intact peptide remaining after incubations with human plasma.
Setting [6] is: isolated enzyme dpp iv, pH 7.8, % Intact peptide remaining after time (h).

No end group written: not given here.

T1 sequence (P22411 whole entry): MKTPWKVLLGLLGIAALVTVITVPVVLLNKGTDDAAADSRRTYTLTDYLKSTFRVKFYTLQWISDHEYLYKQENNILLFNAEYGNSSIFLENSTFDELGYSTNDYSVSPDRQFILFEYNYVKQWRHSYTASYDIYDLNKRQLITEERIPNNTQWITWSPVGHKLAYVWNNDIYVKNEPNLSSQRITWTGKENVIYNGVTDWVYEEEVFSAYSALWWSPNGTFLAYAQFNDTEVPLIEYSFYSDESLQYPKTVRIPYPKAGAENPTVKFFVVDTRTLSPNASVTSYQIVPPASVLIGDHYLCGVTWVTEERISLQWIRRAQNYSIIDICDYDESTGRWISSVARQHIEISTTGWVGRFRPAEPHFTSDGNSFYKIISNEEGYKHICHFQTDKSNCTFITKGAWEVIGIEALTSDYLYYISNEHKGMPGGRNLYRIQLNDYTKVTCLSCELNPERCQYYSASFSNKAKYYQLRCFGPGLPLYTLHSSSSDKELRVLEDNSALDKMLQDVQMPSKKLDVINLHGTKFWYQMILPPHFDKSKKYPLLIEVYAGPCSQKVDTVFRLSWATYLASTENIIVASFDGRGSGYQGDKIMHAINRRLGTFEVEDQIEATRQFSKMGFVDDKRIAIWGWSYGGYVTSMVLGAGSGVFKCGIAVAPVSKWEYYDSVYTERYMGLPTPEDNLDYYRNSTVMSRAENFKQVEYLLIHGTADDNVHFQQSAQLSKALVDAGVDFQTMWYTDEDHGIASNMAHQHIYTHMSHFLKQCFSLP

Take `CC[C@H](C)[C@H](NC(=O)[C@H](CO)NC(=O)[C@H](Cc1ccc(O)cc1)NC(=O)[C@H](CC(=O)O)NC(=O)[C@H](CO)NC(=O)[C@@H](NC(=O)[C@H](Cc1ccccc1)NC(=O)[C@@H](NC(=O)CNC(=O)[C@H](CCC(=O)O)NC(=O)[C@H](C)NC(=O)[C@@H](N)Cc1ccc(O)cc1)[C@@H](C)O)[C@@H](C)CC)C(=O)N[C@@H](C)C(=O)N[C@@H](CCSC)C(=O)N[C@@H](CC(=O)O)C(=O)N[C@@H](CCCCN)C(=O)N[C@H](C(=O)N[C@@H](Cc1c[nH]cn1)C(=O)N[C@@H](CCC(N)=O)C(=O)N[C@@H](CCC(N)=O)C(=O)N[C@@H](CC(=O)O)C(=O)N[C@@H](Cc1ccccc1)C(=O)N[C@H](C(=O)N[C@@H](CC(N)=O)C(=O)N[C@@H](Cc1c[nH]c2ccccc12)C(=O)N[C@@H](CC(C)C)C(=O)N[C@@H](CC(C)C)C(=O)N[C@@H](C)C(=O)N[C@@H](CCC(N)=O)C(=O)N[C@@H](CCCCN)C(=O)NCC(=O)N[C@@H](CCCCN)C(=O)N[C@@H](CCCCN)C(=O)N[C@@H](CC(N)=O)C(=O)N[C@@H](CC(=O)O)C(=O)N[C@@H](Cc1c[nH]c2ccccc12)C(=O)N[C@@H](CCCCN)C(=O)N[C@@H](Cc1c[nH]cn1)C(=O)N[C@@H](CC(N)=O)C(=O)N[C@H](C(=O)N[C@H](C(=O)N[C@@H](CCC(N)=O)C(=O)O)[C@@H](C)O)[C@@H](C)CC)C(C)C)[C@@H](C)CC` [GIP 1–42, reference compound]: in data set [1], the “insulin secretion from BRIN-BD11 cells” value was “prominent and dose-related stimulation of insulin secretion”. Besides, the “overall insulin response (AUC) compared with glucose alone” value in data set [2] is “significantly greater”. The “plasma glucose concentrations and AUC compared with control group” value in data set [2] (vs glucose alone, 0-60 min) is reported as “significantly lower”. In data set [3], the “degradation by human plasma” value was “readily metabolised” and the “plasma degradation” value was “rapidly degraded”. The “% Intact peptide remaining after incubations with human plasma” value in data set [3] (human, plasma, 0 h) was found to be 100%. In data set [3] (setting [5]), this compound registered a share remaining at 2 h, 20 µg/ml of 52 ± 1%; a fraction remaining at 4 h, 20 µg/ml of 23 ± 1%; a share remaining at 8 h, 20 µg/ml of 0%. The “% Intact peptide remaining after time (h)” value in data set [4] (0 h) stood at 100%. The metabolised at 12 h, 1 mmol/l in data set [4] (isolated enzyme dpp iv, pH 7.8) is 60%. For the same compound, in data set [4] (setting [6]), the amount remaining at 2 h, 1 mmol/l stood at 52 ± 1%; the share remaining at 4 h, 1 mmol/l amounted to 23 ± 1%; the share remaining at 8 h, 1 mmol/l is 0%; the fraction remaining at 24 h, 1 mmol/l was determined as 0%. In addition, the amount remaining at 4 h, 1 mmol/l in data set [4] (isolated enzyme dpp iv, pH 7.8, % intact after incubation with DPP IV) came to 54%.
“YAPGTFISDYSIAMDKIHQQDFVNWLLAQKGKKNDWKHNITQ [(Pro^3)GIP]”: in data set [1], the “insulin secretion from BRIN-BD11 cells” value is “least potent analogues in terms of insulin release”.
